The numbers were not newly measured in patent US20110303570A1, “PACKAGE OF SOLID PHARMACEUTICAL PREPARATION” (Astellas Pharma Inc., priority 2009, published 2011), which cites them from elsewhere.

The conditions of the series: administered either orally or directly into the colon of a mammal.

On to `CC(OC(=O)NCC1(CC(=O)O)CCCCC1)OC(=O)C(C)C` (stereo not drawn) [1-{[(α-isobutanoyloxyethoxy)carbonyl]aminomethyl}-1-cyclohexane acetic acid], for which the Bioavailability as gabapentin entry is reported as “high”.
